Assay results from the kinase profiling compilation of Christmann-Franck et al. (2016).

Columns and labels:
Assay in all cases: split-luciferase competition binding
PRKCG (human) = PRKCG (human) (UniProt P05129); conditions: compound 10.0 µM
AKT1 (human) = AKT1 (human) (UniProt P31749); conditions: compound 10.0 µM
AKT3 (human) = AKT3 (human) (UniProt Q9Y243); conditions: compound 10.0 µM
PRKCE (human) = PRKCE (human) (UniProt Q02156); conditions: compound 10.0 µM
PDPK1 (human) = PDPK1 (human) (UniProt O15530); conditions: compound 10.0 µM
PKN1 (human) = PKN1 (human) (UniProt Q16512); conditions: compound 10.0 µM
AURKB (human) = AURKB (human) (UniProt Q96GD4); conditions: compound 10.0 µM
Chain of AURKB (human) (Q96GD4 whole entry, looked up): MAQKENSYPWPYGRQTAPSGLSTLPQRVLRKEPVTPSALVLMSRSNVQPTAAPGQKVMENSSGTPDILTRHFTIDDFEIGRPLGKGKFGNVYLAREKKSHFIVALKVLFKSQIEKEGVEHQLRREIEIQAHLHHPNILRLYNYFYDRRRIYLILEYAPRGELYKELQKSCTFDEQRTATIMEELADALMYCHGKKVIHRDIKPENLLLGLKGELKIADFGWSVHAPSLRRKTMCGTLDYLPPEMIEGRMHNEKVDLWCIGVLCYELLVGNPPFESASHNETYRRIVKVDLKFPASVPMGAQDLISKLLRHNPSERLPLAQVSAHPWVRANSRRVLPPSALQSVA

PRKCI (human) = PRKCI (human) (UniProt P41743); conditions: compound 10.0 µM
RPS6KA3 KD1 (human) = RPS6KA3 KD1 (human) (UniProt P51812); conditions: compound 10.0 µM
Chain of RPS6KA3 KD1 (human) (P51812 whole entry, looked up): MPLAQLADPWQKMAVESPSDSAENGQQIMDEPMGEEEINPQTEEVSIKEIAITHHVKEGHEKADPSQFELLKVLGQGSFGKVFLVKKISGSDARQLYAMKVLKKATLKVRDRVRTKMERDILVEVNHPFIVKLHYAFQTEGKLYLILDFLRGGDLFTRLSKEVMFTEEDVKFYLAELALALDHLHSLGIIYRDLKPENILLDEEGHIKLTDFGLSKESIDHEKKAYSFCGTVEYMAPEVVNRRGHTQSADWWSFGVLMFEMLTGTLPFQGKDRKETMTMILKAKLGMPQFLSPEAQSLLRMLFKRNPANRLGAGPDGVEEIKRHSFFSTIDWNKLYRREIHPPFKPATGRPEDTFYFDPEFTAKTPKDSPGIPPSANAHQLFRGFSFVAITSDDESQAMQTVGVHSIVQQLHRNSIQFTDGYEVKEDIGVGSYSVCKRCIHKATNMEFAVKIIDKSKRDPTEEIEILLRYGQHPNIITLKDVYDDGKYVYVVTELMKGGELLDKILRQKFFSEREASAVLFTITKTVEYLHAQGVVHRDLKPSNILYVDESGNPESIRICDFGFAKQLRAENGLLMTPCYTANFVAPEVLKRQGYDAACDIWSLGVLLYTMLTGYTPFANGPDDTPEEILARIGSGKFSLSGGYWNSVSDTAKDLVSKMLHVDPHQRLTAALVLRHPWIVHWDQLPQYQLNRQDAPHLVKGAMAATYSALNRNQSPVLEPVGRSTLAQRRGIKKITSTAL

PRKACB (human) = PRKACB (human) (UniProt P22694); conditions: compound 10.0 µM
RPS6KA4 KD1 (human) = RPS6KA4 KD1 (human) (UniProt O75676); conditions: compound 10.0 µM
RPS6KA1 KD1 (human) = RPS6KA1 KD1 (human) (UniProt Q15418); conditions: compound 10.0 µM
RPS6KA2 KD1 (human) = RPS6KA2 KD1 (human) (UniProt Q15349); conditions: compound 10.0 µM
Chain of RPS6KA2 KD1 (human) (Q15349 whole entry, looked up): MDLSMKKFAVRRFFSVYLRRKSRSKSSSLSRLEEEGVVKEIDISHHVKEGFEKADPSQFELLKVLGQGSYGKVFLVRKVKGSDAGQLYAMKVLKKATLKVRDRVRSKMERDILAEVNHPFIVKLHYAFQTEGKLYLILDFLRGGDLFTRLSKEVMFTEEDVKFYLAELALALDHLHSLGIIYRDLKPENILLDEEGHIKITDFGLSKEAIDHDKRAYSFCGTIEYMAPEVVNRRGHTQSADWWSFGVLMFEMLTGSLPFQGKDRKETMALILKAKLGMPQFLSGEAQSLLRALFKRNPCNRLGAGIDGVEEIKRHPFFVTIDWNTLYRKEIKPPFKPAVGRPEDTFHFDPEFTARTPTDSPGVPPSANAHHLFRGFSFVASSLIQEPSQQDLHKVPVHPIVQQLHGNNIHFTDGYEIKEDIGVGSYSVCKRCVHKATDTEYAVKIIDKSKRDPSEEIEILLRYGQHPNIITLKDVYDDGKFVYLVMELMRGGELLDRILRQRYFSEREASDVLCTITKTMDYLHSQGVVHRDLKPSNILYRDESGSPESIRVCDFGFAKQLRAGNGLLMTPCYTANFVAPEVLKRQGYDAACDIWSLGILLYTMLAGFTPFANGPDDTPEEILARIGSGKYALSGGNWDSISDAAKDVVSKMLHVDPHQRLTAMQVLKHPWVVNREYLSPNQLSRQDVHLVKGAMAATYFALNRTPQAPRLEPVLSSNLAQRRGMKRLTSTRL

STK32B (human) = STK32B (human) (UniProt Q9NY57); conditions: compound 10.0 µM
Chain of STK32B (human) (Q9NY57 whole entry, looked up): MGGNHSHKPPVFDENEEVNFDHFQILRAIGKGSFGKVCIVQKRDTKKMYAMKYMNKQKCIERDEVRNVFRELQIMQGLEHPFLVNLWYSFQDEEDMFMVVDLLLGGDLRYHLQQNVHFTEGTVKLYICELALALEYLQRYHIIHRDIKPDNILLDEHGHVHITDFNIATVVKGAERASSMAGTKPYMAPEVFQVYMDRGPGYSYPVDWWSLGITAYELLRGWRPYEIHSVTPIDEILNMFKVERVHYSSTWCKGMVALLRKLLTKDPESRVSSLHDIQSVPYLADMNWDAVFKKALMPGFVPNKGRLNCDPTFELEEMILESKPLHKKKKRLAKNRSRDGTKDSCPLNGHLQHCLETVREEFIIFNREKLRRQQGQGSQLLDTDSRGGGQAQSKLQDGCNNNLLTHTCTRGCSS

SGK2 (human) = SGK2 (human) (UniProt Q9HBY8); conditions: compound 10.0 µM
AKT2 (human) = AKT2 (human) (UniProt P31751); conditions: compound 10.0 µM
AURKA (human) = AURKA (human) (UniProt O14965); conditions: compound 10.0 µM
RPS6KA5 KD1 (human) = RPS6KA5 KD1 (human) (UniProt O75582); conditions: compound 10.0 µM
Chain of RPS6KA5 KD1 (human) (O75582 whole entry, looked up): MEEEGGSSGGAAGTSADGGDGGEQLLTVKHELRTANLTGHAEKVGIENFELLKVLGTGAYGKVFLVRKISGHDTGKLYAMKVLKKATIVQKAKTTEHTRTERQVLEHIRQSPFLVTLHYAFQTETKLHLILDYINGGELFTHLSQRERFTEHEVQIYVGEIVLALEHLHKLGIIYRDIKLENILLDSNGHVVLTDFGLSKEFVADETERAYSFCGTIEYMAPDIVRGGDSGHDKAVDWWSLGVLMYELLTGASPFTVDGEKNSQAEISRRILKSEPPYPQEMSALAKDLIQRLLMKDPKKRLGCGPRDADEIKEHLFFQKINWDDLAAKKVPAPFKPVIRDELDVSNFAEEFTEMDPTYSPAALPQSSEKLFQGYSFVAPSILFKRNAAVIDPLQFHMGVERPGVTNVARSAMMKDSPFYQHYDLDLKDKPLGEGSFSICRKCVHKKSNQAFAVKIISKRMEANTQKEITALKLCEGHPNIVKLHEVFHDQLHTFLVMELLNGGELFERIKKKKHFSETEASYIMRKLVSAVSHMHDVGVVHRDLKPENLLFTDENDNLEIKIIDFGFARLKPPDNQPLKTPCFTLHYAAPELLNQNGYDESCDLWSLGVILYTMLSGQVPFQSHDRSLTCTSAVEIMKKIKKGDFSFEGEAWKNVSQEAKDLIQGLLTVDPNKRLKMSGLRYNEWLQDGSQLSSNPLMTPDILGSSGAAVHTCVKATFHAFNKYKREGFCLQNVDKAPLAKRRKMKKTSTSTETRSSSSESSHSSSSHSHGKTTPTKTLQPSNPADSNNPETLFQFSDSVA

PRKX (human) = PRKX (human) (UniProt P51817); conditions: compound 10.0 µM
Chain of PRKX (human) (P51817 whole entry, looked up): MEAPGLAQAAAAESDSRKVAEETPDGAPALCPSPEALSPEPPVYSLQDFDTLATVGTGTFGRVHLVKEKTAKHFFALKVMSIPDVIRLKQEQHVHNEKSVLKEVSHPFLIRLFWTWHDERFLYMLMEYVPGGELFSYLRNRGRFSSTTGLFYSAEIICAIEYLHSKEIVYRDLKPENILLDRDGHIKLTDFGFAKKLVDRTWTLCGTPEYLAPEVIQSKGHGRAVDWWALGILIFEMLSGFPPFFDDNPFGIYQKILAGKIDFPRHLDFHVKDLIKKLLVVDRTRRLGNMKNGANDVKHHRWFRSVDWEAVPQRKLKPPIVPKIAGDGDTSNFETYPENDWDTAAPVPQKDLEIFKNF

PRKACA (mouse) = conditions: compound 10.0 µM; accession and sequence are those of the human protein
PRKCQ (human) = PRKCQ (human) (UniProt Q04759); conditions: compound 10.0 µM
AURKC (human) = AURKC (human) (UniProt Q9UQB9); conditions: compound 10.0 µM
Chain of AURKC (human) (Q9UQB9 whole entry, looked up): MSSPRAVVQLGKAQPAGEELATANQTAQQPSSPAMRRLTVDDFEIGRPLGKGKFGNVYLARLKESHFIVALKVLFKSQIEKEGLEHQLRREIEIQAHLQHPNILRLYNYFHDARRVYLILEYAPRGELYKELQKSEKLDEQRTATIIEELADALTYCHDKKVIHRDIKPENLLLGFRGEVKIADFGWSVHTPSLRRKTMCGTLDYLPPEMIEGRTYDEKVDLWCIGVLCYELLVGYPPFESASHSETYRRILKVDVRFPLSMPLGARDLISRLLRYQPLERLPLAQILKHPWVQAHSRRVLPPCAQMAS

RPS6KA6 KD1 (human) = RPS6KA6 KD1 (human) (UniProt Q9UK32); conditions: compound 10.0 µM
DMPK (human) = DMPK (human) (UniProt Q09013); conditions: compound 10.0 µM
Chain of DMPK (human) (Q09013 whole entry, looked up): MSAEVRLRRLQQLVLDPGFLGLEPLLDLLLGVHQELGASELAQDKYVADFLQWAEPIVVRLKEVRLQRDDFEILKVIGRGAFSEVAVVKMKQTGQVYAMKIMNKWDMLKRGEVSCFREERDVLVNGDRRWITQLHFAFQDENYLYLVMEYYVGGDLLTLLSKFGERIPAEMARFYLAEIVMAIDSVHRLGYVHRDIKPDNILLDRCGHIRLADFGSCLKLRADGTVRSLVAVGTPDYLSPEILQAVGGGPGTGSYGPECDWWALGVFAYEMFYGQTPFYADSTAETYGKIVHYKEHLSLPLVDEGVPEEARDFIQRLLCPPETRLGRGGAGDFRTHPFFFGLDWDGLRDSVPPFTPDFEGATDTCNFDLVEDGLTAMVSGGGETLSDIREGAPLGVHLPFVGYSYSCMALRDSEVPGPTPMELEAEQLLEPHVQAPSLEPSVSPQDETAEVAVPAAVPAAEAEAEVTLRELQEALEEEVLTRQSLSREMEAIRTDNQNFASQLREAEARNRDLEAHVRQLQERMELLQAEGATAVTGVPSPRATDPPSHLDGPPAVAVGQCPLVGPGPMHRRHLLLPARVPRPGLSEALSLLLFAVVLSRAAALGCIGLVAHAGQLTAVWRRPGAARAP

PRKCD (human) = PRKCD (human) (UniProt Q05655); conditions: compound 10.0 µM
Chain of PRKCD (human) (Q05655 whole entry, looked up): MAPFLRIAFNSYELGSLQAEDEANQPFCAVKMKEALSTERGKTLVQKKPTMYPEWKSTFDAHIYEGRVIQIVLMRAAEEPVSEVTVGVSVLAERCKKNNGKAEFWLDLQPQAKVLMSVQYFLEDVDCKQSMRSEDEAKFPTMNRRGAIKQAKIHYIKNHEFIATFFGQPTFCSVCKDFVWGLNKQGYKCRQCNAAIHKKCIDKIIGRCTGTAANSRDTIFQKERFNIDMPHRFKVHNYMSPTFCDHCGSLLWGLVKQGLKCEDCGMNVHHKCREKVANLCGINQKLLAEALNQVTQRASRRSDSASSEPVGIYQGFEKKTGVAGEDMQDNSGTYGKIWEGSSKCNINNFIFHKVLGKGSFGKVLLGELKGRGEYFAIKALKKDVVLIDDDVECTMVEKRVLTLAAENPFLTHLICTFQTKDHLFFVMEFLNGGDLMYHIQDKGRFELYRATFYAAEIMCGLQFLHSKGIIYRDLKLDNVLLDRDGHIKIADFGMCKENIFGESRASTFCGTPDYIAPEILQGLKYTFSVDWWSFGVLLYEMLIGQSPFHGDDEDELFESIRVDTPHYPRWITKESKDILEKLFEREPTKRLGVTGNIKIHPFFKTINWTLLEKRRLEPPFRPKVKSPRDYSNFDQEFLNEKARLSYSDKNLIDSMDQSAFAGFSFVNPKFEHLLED

SGK3 (human) = SGK3 (human) (UniProt Q96BR1); conditions: compound 10.0 µM
PRKCH (human) = PRKCH (human) (UniProt P24723); conditions: compound 10.0 µM

Row | inhibition (AKT1 (human)) | inhibition (AKT3 (human)) | inhibition (PRKCE (human)) | inhibition (PDPK1 (human)) | inhibition (PKN1 (human)) | inhibition (AURKB (human)) | inhibition (PRKCI (human)) | inhibition (PRKACB (human)) | inhibition (RPS6KA4 KD1 (human)) | inhibition (RPS6KA1 KD1 (human)) | inhibition (RPS6KA2 KD1 (human)) | inhibition (STK32B (human)) | inhibition (SGK2 (human)) | inhibition (AURKA (human)) | inhibition (PRKX (human)) | inhibition (PRKCQ (human)) | inhibition (AURKC (human)) | inhibition (RPS6KA6 KD1 (human)) | inhibition (PRKCD (human)) | inhibition (SGK3 (human)) | Compound | other results
1 | 0% | 0% | 40% | 9% | 0% | 32% | 0% | 12% | 0% | 4% | 0% | 8% | 69% | 19% | 29% | 38% | 15% | 10% | 4% | 62% | O=C(c1ccc(Nc2nccc(-c3cc4ccccc4s3)n2)cc1)N1CCC(N2CCCC2)CC1 | inhibition (PRKCG (human)): 13%; inhibition (RPS6KA3 KD1 (human)): 2%; inhibition (AKT2 (human)): 0%; inhibition (RPS6KA5 KD1 (human)): 0%; inhibition (PRKACA (mouse)): 12%; inhibition (DMPK (human)): 18%
2 | 0% | 0% | 0% | 0% | 0% | 0% | 38% |  | 0% | 2% | 0% | 0% | 1% | 0% | 77% | 1% | 6% | 0% | 1% | 0% | O=S(=O)(c1cccc2cnccc12)N1CCCNCC1 | inhibition (PRKCG (human)): 0%; inhibition (PRKCH (human)): 17%; inhibition (AKT2 (human)): 0%; inhibition (RPS6KA5 KD1 (human)): 0%; inhibition (DMPK (human)): 0%
3 | 2% | 0% | 8% | 0% | 0% | 0% | 0% | 0% | 1% | 27% | 1% | 58% | 0% | 0% | 0% | 0% | 0% | 14% | 0% | 0% | Cc1ccc(-c2nn(C(C)(C)C)c3ncnc(N)c23)cc1 | inhibition (PRKCG (human)): 0%; inhibition (PRKCH (human)): 8%; inhibition (RPS6KA3 KD1 (human)): 8%; inhibition (AKT2 (human)): 0%; inhibition (RPS6KA5 KD1 (human)): 0%; inhibition (DMPK (human)): 28%
4 | 9% | 0% | 0% | 0% | 2% | 55% | 0% | 0% | 0% | 5% | 2% | 1% | 0% | 13% | 7% | 0% | 66% | 3% | 0% | 0% | COc1cc2c(Nc3ccc(NC(=O)c4ccccc4)cc3)ncnc2cc1OCCCN1CCOCC1 | inhibition (PRKCG (human)): 6%; inhibition (PRKCH (human)): 0%; inhibition (AKT2 (human)): 0%; inhibition (RPS6KA5 KD1 (human)): 0%; inhibition (PRKACA (mouse)): 7%; inhibition (DMPK (human)): 9%
5 | 28% | 26% | 22% | 10% | 0% | 22% | 22% | 0% | 86% | 86% | 69% | 0% | 44% | 0% | 25% | 7% | 30% | 69% | 0% | 42% | CCN(CC)CCNC(=O)c1c(C)[nH]c(/C=C2\C(=O)Nc3ccc(F)cc32)c1C | inhibition (PRKCG (human)): 0%; inhibition (PRKCH (human)): 39%; inhibition (RPS6KA3 KD1 (human)): 59%; inhibition (PRKACA (mouse)): 2%; inhibition (DMPK (human)): 0%
6 | 62% | 78% | 71% | 2% | 36% | 13% | 63% | 73% | 56% | 71% | 89% | 63% | 34% | 2% | 32% | 93% | 10% | 80% | 91% | 65% | Cn1cc(C2=C(c3cn(CCCSC(=N)N)c4ccccc34)C(=O)NC2=O)c2ccccc21 | inhibition (PRKCH (human)): 81%; inhibition (RPS6KA3 KD1 (human)): 87%; inhibition (AKT2 (human)): 28%; inhibition (RPS6KA5 KD1 (human)): 64%; inhibition (PRKACA (mouse)): 62%; inhibition (DMPK (human)): 76%
7 | 15% | 0% | 0% | 10% | 0% | 3% | 0% | 8% | 0% | 0% | 3% | 19% | 0% | 0% | 8% | 12% | 0% | 0% | 0% | 12% | O=C1NC(=O)c2cc(Nc3ccc(F)cc3)c(Nc3ccc(F)cc3)cc21 | inhibition (PRKCH (human)): 1%; inhibition (RPS6KA3 KD1 (human)): 0%; inhibition (AKT2 (human)): 0%; inhibition (RPS6KA5 KD1 (human)): 0%; inhibition (PRKACA (mouse)): 13%

Row | Compound | inhibition (AKT1 (human)) | inhibition (AKT3 (human)) | inhibition (PRKCE (human)) | inhibition (PDPK1 (human)) | inhibition (PKN1 (human)) | inhibition (AURKB (human)) | inhibition (PRKCI (human)) | inhibition (PRKACB (human)) | inhibition (RPS6KA4 KD1 (human)) | inhibition (RPS6KA1 KD1 (human)) | inhibition (RPS6KA2 KD1 (human)) | inhibition (STK32B (human)) | inhibition (SGK2 (human)) | inhibition (AURKA (human)) | inhibition (PRKX (human)) | inhibition (PRKCQ (human)) | inhibition (AURKC (human)) | inhibition (RPS6KA6 KD1 (human)) | inhibition (PRKCD (human)) | inhibition (SGK3 (human)) | other results
8 | O=S(=O)(NCCNC/C=C/c1ccc(Br)cc1)c1cccc2cnccc12 | 21% | 15% | 9% | 0% | 0% | 2% | 80% | 75% | 10% | 0% | 0% | 17% |  | 0% | 87% | 40% | 12% | 5% | 10% | 41% | inhibition (PRKCG (human)): 0%; inhibition (PRKCH (human)): 34%; inhibition (RPS6KA3 KD1 (human)): 5%; inhibition (AKT2 (human)): 0%; inhibition (RPS6KA5 KD1 (human)): 0%; inhibition (PRKACA (mouse)): 67%; inhibition (DMPK (human)): 0%
9 | CO[C@@H]1[C@H](N(C)C(=O)c2ccccc2)C[C@H]2O[C@]1(C)n1c3ccccc3c3c4c(c5c6ccccc6n2c5c31)C(=O)NC4 | 55% | 31% | 57% | 10% | 23% | 44% | 65% | 81% | 70% | 56% | 70% | 56% | 22% | 26% | 71% | 55% | 38% | 75% | 52% | 43% | inhibition (PRKCG (human)): 52%; inhibition (PRKCH (human)): 60%; inhibition (RPS6KA3 KD1 (human)): 79%; inhibition (RPS6KA5 KD1 (human)): 66%; inhibition (PRKACA (mouse)): 63%; inhibition (DMPK (human)): 29%
